# Measured values taken from patent US4038395A, “Compositions of and method of treating with the alpha-isomer of 2-chloro-9-[3'-(N'-2-hydroxyethylpiperazino-N)-propylidene]-thiaxanthene , carboxylic acid esters thereof and acid addition salts of these compounds” (Kefalas A/S, priority 1973, dated 1977).
# Structures can show the parent of a compound that is named as a salt. Where two headings read alike, the source gives them in different places.
# Assays:
# [1] = system: apomorphine-induced gnaw-compulsion; experiment: Apomorphine antagonism in rats (gnaw-compulsion); type: in vivo, male rats (Wistar/Af/Han/Mo)(Han 67) SPF; details: for ED50: apomorphine 10 mg/kg s.c. 2 h later
# From the text: (§1) Alpha-clopenthixol and its decanoic acid ester have been tested for neuroleptic activity with standard reliable test methods. In the testing alpha- and beta-clopenthixol (alpha-CPT and beta-CPT) have been compared with a sample of clopenthixol (CPT) containing 34% alpha-CPT as determined by I.R. spectrophotometry.
# The test method used is a slight modification of the test described by Janssen, P.A.J., Niemegeers, C.J.E. and Schellekens, K.H.L., Arzneimittel-Forschung, 1965, 15, 104-117. Male rats (Wistar/Af/Han/Mo)(Han 67) SPF, 230-270 g) were given test substance intraperitoneally (9 animals per group). Two hours later apomorphine (10 mg/kg) was injected subcutaneously and the animals were placed in individual cages for one hour. A cage consisted of a 30 cm high perspex box (12 × 25 cm), without bottom and lid, which during the experiment was placed on corrugated paper. […] Percentage non-biters was plotted on log-probit paper against dose and the ED50 was read from the diagram.
# [2] = system: methylphenidate-induced stereotyped gnawing; experiment: Methylphenidate antagonism in mice (stereotyped gnawing); type: in vivo, male mice (NMRI/BOM SPF)
# From the text: as §1
# Pedersen V. and A. V. Christensen: "Antagonism of methylphenidate-induced stereotyped gnawing in mice". Acta pharmacol. et toxicol. 1972, 31, 488-496.
# Male mice (NMRI/BOM SPF, 18-25 g) were given an intraperitoneal dose of test compound. Two hours later 60 mg/kg of methylphenidate hydrochloride were injected subcutaneously, and immediately thereafter the animals were placed in cages, 2 mice in each cage, for 1 hour. The cages which during the experiment were placed on corrugated paper, are described under apomorphine antagonism on page 4. In this situation control mice, when given this dose of methylphenidate, will bite the corrugated paper (gnaw-compulsion). All compounds were tested at 5 dose levels using 5 pairs of mice per dose. Percentage non-biters was plotted on log.-probit paper against dose and approximate ED50 values were read from the diagrams.
# mice = experiment: Acute toxicity upon intravenous injection in mice; type: in vivo, male mice (NMRI/BOM SPF); details: i.v.; for LD50: fasted 24 hours
# Procedure: (§2) Acute toxicity upon intravenous injection has been tested using groups of five male mice (NMRI/BOM SPF, 18-25 g), fasted for 24 hours. Three or four dose-levels were needed to determine LD50 values according to Miller and Tainter. Estimation of the ED50 and its error by means of logarithmicprobit graph paper.
# [3] = system: apomorphine-induced vomiting in dogs; experiment: Apomorphine antagonism in dogs (vomiting); type: in vivo, Adult purebred Beagles
# Procedure: Adult purebred Beagles of either sex from our own stock were used.
# Four dogs were used for each dose level of the drug, which was injected subcutaneously at the back of the neck. At different times after the drug administration the dogs were then challenged with apomorphine according to an "up and down"-schedule using the dose-range 25-400 μg/kg i.v. geometrically spaced. […] In this way it was possible to estimate at which level of apomorphine the dogs were protected at a given time. The dogs were fed half an hour before testing to secure an easy vomiting act.
# human beings = experiment: Administration to human beings (neuroleptic action); type: in vivo; details: single intramuscular injection of about 20 - 100 mg in a light vegetable oil
# From the text: Alpha-clopenthixol or an ester thereof and the non-toxic acid addition salts thereof (in the following collectively called "active ingredients") may be administered to animals such as dogs, cats, horses, sheeps or the like, including human beings, both orally and parenterally, and may be used for example in the form of tablets, capsules, powders, syrups or in the form of the usual sterile solutions for injection. Results upon administration to human beings have been very gratifying.
# Results upon administration to human beings of the compositions of the invention have been very gratifying. Preferably, however, the compositions are in the form of sterile solutions or suspensions for injection, and in a preferred embodiment of the invention injectable solutions may be prepared from a non-toxic injectable fat or oil, e.g. light vegetable oil, sesam oil, olive oil, arachis oil or ethyl oleate, and they may additionally contain gelling agents, e.g. aluminium stearate, to delay absorption within the body. Such oily solutions have a very prolonged activity when […] intramuscularly, and satisfactory neuroleptic action has been produced by a single intramuscular injection of about 20 - 100 mg of Lu 8- 008 dissolved in a light vegetable oil for as long as 2-4 weeks.
# [4] = Acute toxicity upon intravenous injection in mice; type: in vivo, male mice (NMRI/BOM SPF); details: mouse, in vivo, iv, fasted 24 hours
# Procedure: as §2
# [5] = dogs, 10 mg/kg s.c., aqueous solution
# [6] = dogs, 10 mg/kg s.c., depot-preparation
# [7] = dogs, both dose levels (10 and 20 mg/kg s.c.)
smiles,measurement,setting,value
"Cl.Cl.OCCN1CCN(CCC=C2c3ccccc3Sc3ccc(Cl)cc32)CC1 [CPT 2 HCl, 2-chloro-9-[3'-(N'-2-hydroxyethylpiperazino-N)-propylidene]-thiaxanthene]",% Non-biters,[1]; 2.5 mg/kg i.p.,33%
same,% Non-biters,[1]; 5 mg/kg i.p.,44%
same,% Non-biters,[1]; 10 mg/kg i.p.,67%
same,% Non-biters,[1]; 20 mg/kg i.p.,78%
same,ED50,[1]; i.p.,5.5 mg/kg i.p.
same,% Non-biters,[2]; 0.63 mg/kg i.p.,20%
same,% Non-biters,[2]; 1.25 mg/kg i.p.,60%
same,% Non-biters,[2]; 2.5 mg/kg i.p.,80%
same,% Non-biters,[2]; 5 mg/kg i.p.,100%
same,% Non-biters,[2]; 10 mg/kg i.p.,100%
same,ED50 (approximate),"[2]; i.p., methylphenidate hydrochloride 60 mg/kg s.c. 2 h later",1.2 mg/kg i.p.
same,LD50,mice,111 ± 10 mg/kg i.v.
same,duration of protection against apomorphine,"[3]; dogs, 10 mg/kg s.c.",3 days
same,duration of heavy sedation,[3]; [5],about 24 hours
same,time p.i. at which maximal protection against apomorphine was afforded,[3]; [5],4 h
same,maximal level of protection against apomorphine (times threshold),"[3]; dogs, 10 mg/kg s.c., aqueous solution, 4 hours p.i.",about 16 times threshold
same,protection against apomorphine at day 3,"[3]; dogs, 10 mg/kg s.c., aqueous solution, day 3",restricted to the threshold dose of apomorphine
same,protection against apomorphine at day 4,"[3]; dogs, 10 mg/kg s.c., aqueous solution, day 4",returned to control level
same,sedation,"[3]; dogs, 10 mg/kg s.c., aqueous solution, from 4 h p.i.",heavily sedated
"CCCCCCCCCC(=O)OCCN1CCN(CCC=C2c3ccccc3Sc3ccc(Cl)cc32)CC1 [Lu 8-008, alpha-isomer of the decanoic acid ester of 2-chloro-9-[3'(N'-2-hydroxyethylpiperazino-N)-propylidene]-thiaxanthene]",duration of protection against apomorphine,"[3]; dogs, 10 mg/kg s.c.",14 days
same,maximal level of protection (times threshold dose of apomorphine),"[3]; dogs, 10 mg/kg s.c., 5% solution",2 times threshold
same,maximal level of protection (times threshold dose of apomorphine),"[3]; dogs, 10 mg/kg s.c., 10% solution",4 times threshold
same,sedation,[3]; [6],at no time displayed any signs of sedation
same,time course of protection level,[3]; [6],"reached smoothly during the first week p.i., and then declined smoothly during the second week"
same,"prolongation of the protection against apomorphine, in words","[3]; dogs, 10 mg/kg s.c., depot-preparation, 5% or 10% solution",considerable prolongation of the protection against apomorphine
same,duration of protection against apomorphine,"[3]; dogs, 20 mg/kg s.c., depot-preparation",3 weeks
same,maximal level of protection (times threshold),"[3]; dogs, 20 mg/kg s.c., during the first week",8 times threshold
same,sedation,"[3]; dogs, 20 mg/kg s.c., first week",slightly sedated
same,"duration of protection, 10% solution compared with 5% solution",[3]; [7],the duration was equal
same,"maximal protection, 10% solution compared with 5% solution",[3]; [7],higher and/or more persisting maximal protection against apomorphine
same,duration of satisfactory neuroleptic action,human beings,2-4 weeks
"OCCN1CCN(CCC=C2c3ccccc3Sc3ccc(Cl)cc32)CC1 [alpha-CPT 2 HCl, alpha-isomer of 2-chloro-9-[3'-(N'-2-hydroxyethylpiperazino-N)-propylidene]-thiaxanthene]",% Non-biters,[1]; 1.25 mg/kg i.p.,11%
same,% Non-biters,[1]; 2.5 mg/kg i.p.,44%
same,% Non-biters,[1]; 5 mg/kg i.p.,100%
same,% Non-biters,"[1]; 10 mg/kg i.p., 10 mg/kg",100%
same,ED50,"[1]; Rattus norvegicus, ip, read-out: ED50",2.4 mg/kg
same,% Non-biters,[2]; 0.31 mg/kg i.p.,20%
same,% Non-biters,[2]; 0.63 mg/kg i.p.,60%
same,% Non-biters,[2]; 1.25 mg/kg i.p.,60%
same,% Non-biters,[2]; 2.5 mg/kg i.p.,100%
same,% Non-biters,"[2]; 5 mg/kg i.p., 5 mg/kg",100%
same,ED50,"[2]; Mus musculus, ip, methylphenidate hydrochloride 60 mg/kg s.c. 2 h later, read-out: ED50 (approximate)",0.65 mg/kg
same,LD50,[4],105 ± 10 mg/kg
"OCCN1CCN(CCC=C2c3ccccc3Sc3ccc(Cl)cc32)CC1 [alpha-CPT, alpha-isomer of 2-chloro-9-[3'-(N'-2-hydroxyethylpiperazino-N)-propylidene]-thiaxanthene]",activity relative to CPT (times more active),"[1]; i.p., vs CPT",2- 3 times
same,activity relative to CPT,"[2]; i.p., vs CPT (containing 34% alpha-CPT)",about twice as active as CPT
CN1CCc2cccc3c2[C@H]1Cc1ccc(O)c(O)c1-3 [apomorphine],minimal effective dose,"[3]; Canis lupus familiaris, iv, Beagle dogs, read-out: threshold-dose of apomorphine for provoking vomiting",0.025 mg/kg
OCCN1CCN(CCC=C2c3ccccc3Sc3ccc(Cl)cc32)CC1 [beta-CPT 2 HCl],% Non-biters,"[1]; 10 mg/kg i.p., 10 mg/kg",11%
same,% Non-biters,[1]; 20 mg/kg i.p.,0%
same,% Non-biters,[1]; 40 mg/kg i.p.,11%
same,% Non-biters,[1]; 80 mg/kg i.p.,11%
same,ED50,[1]; i.p.,none
same,% Non-biters,"[2]; 5 mg/kg i.p., 5 mg/kg",60%
same,% Non-biters,[2]; 10 mg/kg i.p.,20%
same,% Non-biters,[2]; 20 mg/kg i.p.,100%
same,% Non-biters,[2]; 40 mg/kg i.p.,80%
same,% Non-biters,[2]; 80 mg/kg i.p.,80%
same,LD50,mice,134 ± 10 mg/kg i.v.
"OCCN1CCN(CCC=C2c3ccccc3Sc3ccc(Cl)cc32)CC1 [beta-CPT, beta-isomer of 2-chloro-9-[3'-(N'-2-hydroxyethylpiperazino-N)-propylidene]-thiaxanthene]","apomorphine antagonism, in words",[1]; doses as high as 80 mg/kg i.p.,almost completely inactive
same,"inhibition of methylphenidate-induced compulsive gnawing, in words",[2]; 20 mg/kg i.p.,complete inhibition
same,"inhibition of methylphenidate-induced compulsive gnawing, in words",[2]; doses higher and lower than 20 mg/kg i.p.,only partial inhibition
same,"acute toxicity compared, in words",mice; vs alpha-isomer and the mixture,somewhat less toxic than the alpha-isomer and the mixture
